Blank lines part the entries; values can stand above or below the compound they belong to.
What was measured:
tau [1] = experiment: ^11C-THK5351 autoradiography and competition on large frozen AD brain sections; assay type: binding, human; design: Total Binding / NSP Binding: unit not given here
Description: (§1) Adjacent sections were used for autoradiography with ^11C-THK5351, ^11C-PBB3, and ^18F-T807. The frozen sections were allowed to reach room temperature, incubated for 30 minutes at room temperature with ^11C-THK5351 (0.4–0.56 nM; specific activity 356–532 GBq/μmol) or ^11C-PBB3 (0.25–0.34 nM; specific activity 442–794 GBq/μmol) or for 55 minutes at room temperature with ^18F-T807 (0.04 nM; specific activity 281 GBq/μmol). We used 10 μM unlabeled THK5351, 10 μM unlabeled PBB3, and 10 μM unlabeled T807 to determine the extent of nonspecific binding for each tracer. The sections were rinsed three times for 5 minutes each with cold binding buffer, followed by a quick dip in cold distilled water. The sections were dried and exposed for 1 h (for ^11C-THK5351 and ^11C-PBB3) or for 3 h (^18 F-T807) on a phosphor imaging plate and then read using the BAS-2500 phosphor imager.
(§2) For all the autoradiography studies, the regions of interest were drawn manually on the autoradiogram using multigauge software and were used for the semiquantitative analyses. Photostimulated luminescence per square millimeter (PSL/mm^2) was transformed to picomoles per cubic millimeter using a transformation factor that took into account the resolution of the image, the pixel value for the concentration of ligand, and the thickness of the sections: (PSL/mm^2 value)/([pixel value per pmol] × [(resolution/1000)^2] × [cryosection thickness]/1000).

tau [2] = experiment: ^18F-T807 autoradiography and competition on large frozen AD brain sections; assay type: binding, human; design: Total Binding / NSP Binding: unit not given here; settings: vs Unlabelled T807
Description: as §1, §2

[3] = AD1, Basal ganglia, vs Unlabelled T807
[4] = AD1, Basal ganglia, vs Unlabelled THK5351
[5] = AD1, Frontal cortex, vs Unlabelled T807
[6] = AD1, Frontal cortex, vs Unlabelled THK5351
[7] = AD1, Insula, vs Unlabelled T807
[8] = AD1, Insula, vs Unlabelled THK5351
[9] = AD1, Temporal cortex, vs Unlabelled T807
[10] = AD1, Temporal cortex, vs Unlabelled THK5351
[11] = AD2, Basal ganglia, vs Unlabelled T807
[12] = AD2, Basal ganglia, vs Unlabelled THK5351
[13] = AD2, Frontal cortex, vs Unlabelled T807
[14] = AD2, Frontal cortex, vs Unlabelled THK5351
[15] = AD2, Insula, vs Unlabelled T807
[16] = AD2, Insula, vs Unlabelled THK5351
[17] = AD2, Temporal cortex, vs Unlabelled T807
[18] = AD2, Temporal cortex, vs Unlabelled THK5351
[19] = AD3, Basal ganglia, vs Unlabelled T807
[20] = AD3, Basal ganglia, vs Unlabelled THK5351
[21] = AD3, Frontal cortex, vs Unlabelled T807
[22] = AD3, Frontal cortex, vs Unlabelled THK5351
[23] = AD3, Insula, vs Unlabelled T807
[24] = AD3, Insula, vs Unlabelled THK5351
[25] = AD3, Temporal cortex, vs Unlabelled T807
[26] = AD3, Temporal cortex, vs Unlabelled THK5351

- % of specific binding (tau [1]; [3]): 41%
- NSP Binding (tau [1]; [3]): 10866
- Specific Binding (tau [1]; [3]): 7578
- Total Binding (tau [1]; [3]): 18444
- % of specific binding (tau [1]; [4]): 40%
- NSP Binding (tau [1]; [4]): 7577
- Specific Binding (tau [1]; [4]): 5118
- Total Binding (tau [1]; [4]): 12694
- % of specific binding (tau [1]; [5]): 24%
- NSP Binding (tau [1]; [5]): 15579
- Specific Binding (tau [1]; [5]): 4789
- Total Binding (tau [1]; [5]): 20368
- % of specific binding (tau [1]; [6]): 40%
- NSP Binding (tau [1]; [6]): 8920
- Specific Binding (tau [1]; [6]): 5917
- Total Binding (tau [1]; [6]): 14837
- % of specific binding (tau [1]; [7]): 25%
- NSP Binding (tau [1]; [7]): 13255
- Specific Binding (tau [1]; [7]): 4421
- Total Binding (tau [1]; [7]): 17677
- % of specific binding (tau [1]; [8]): 33%
- NSP Binding (tau [1]; [8]): 8376
- Specific Binding (tau [1]; [8]): 4085
- Total Binding (tau [1]; [8]): 12461
- % of specific binding (tau [1]; [9]): 14%
- NSP Binding (tau [1]; [9]): 14662
- Specific Binding (tau [1]; [9]): 2328
- Total Binding (tau [1]; [9]): 16990
- % of specific binding (tau [1]; [10]): 29%
- NSP Binding (tau [1]; [10]): 8202
- Specific Binding (tau [1]; [10]): 3386
- Total Binding (tau [1]; [10]): 11587
- % of specific binding (tau [1]; [11]): 38%
- NSP Binding (tau [1]; [11]): 11830
- Specific Binding (tau [1]; [11]): 7177
- Total Binding (tau [1]; [11]): 19008
- % of specific binding (tau [1]; [12]): 68%
- NSP Binding (tau [1]; [12]): 6390
- Specific Binding (tau [1]; [12]): 13566
- Total Binding (tau [1]; [12]): 19956
- % of specific binding (tau [1]; [13]): 18%
- NSP Binding (tau [1]; [13]): 14824
- Specific Binding (tau [1]; [13]): 3344
- Total Binding (tau [1]; [13]): 18167
- % of specific binding (tau [1]; [14]): 69%
- NSP Binding (tau [1]; [14]): 6755
- Specific Binding (tau [1]; [14]): 15381
- Total Binding (tau [1]; [14]): 22136
- % of specific binding (tau [1]; [15]): 28%
- NSP Binding (tau [1]; [15]): 13363
- Specific Binding (tau [1]; [15]): 5076
- Total Binding (tau [1]; [15]): 18439
- % of specific binding (tau [1]; [16]): 59%
- NSP Binding (tau [1]; [16]): 6886
- Specific Binding (tau [1]; [16]): 9948
- Total Binding (tau [1]; [16]): 16834
- % of specific binding (tau [1]; [17]): 39%
- NSP Binding (tau [1]; [17]): 13589
- Specific Binding (tau [1]; [17]): 8683
- Total Binding (tau [1]; [17]): 22271
- % of specific binding (tau [1]; [18]): 59%
- NSP Binding (tau [1]; [18]): 6673
- Specific Binding (tau [1]; [18]): 9437
- Total Binding (tau [1]; [18]): 16110
- % of specific binding (tau [1]; [19]): 47%
- NSP Binding (tau [1]; [19]): 10872
- Specific Binding (tau [1]; [19]): 9821
- Total Binding (tau [1]; [19]): 20693
- % of specific binding (tau [1]; [20]): 38%
- NSP Binding (tau [1]; [20]): 6733
- Specific Binding (tau [1]; [20]): 4207
- Total Binding (tau [1]; [20]): 10939
- % of specific binding (tau [1]; [21]): 38%
- NSP Binding (tau [1]; [21]): 14792
- Specific Binding (tau [1]; [21]): 8959
- Total Binding (tau [1]; [21]): 23751
- % of specific binding (tau [1]; [22]): 48%
- NSP Binding (tau [1]; [22]): 7079
- Specific Binding (tau [1]; [22]): 6431
- Total Binding (tau [1]; [22]): 13509
- % of specific binding (tau [1]; [23]): 29%
- NSP Binding (tau [1]; [23]): 13574
- Specific Binding (tau [1]; [23]): 5447
- Total Binding (tau [1]; [23]): 19021
- % of specific binding (tau [1]; [24]): 37%
- NSP Binding (tau [1]; [24]): 6903
- Specific Binding (tau [1]; [24]): 3972
- Total Binding (tau [1]; [24]): 10875
- % of specific binding (tau [1]; [25]): 34%
- NSP Binding (tau [1]; [25]): 12673
- Specific Binding (tau [1]; [25]): 6479
- Total Binding (tau [1]; [25]): 19153
- % of specific binding (tau [1]; [26]): 36%
- NSP Binding (tau [1]; [26]): 6717
- Specific Binding (tau [1]; [26]): 3813
- Total Binding (tau [1]; [26]): 10529
SMILES: [11CH3]Nc1ccc(-c2ccc3cc(OC[C@H](O)CF)ccc3n2)cn1 [^11C-THK5351, (S)-1-fluoro-3-(2-(6-([^11C]methylamino)pyridin-3-yl)quinolin-6-yloxy)propan-2-ol]

- % of specific binding (tau [2]; AD1, Basal ganglia): 24%
- NSP Binding (tau [2]; AD1, Basal ganglia): 1895
- Specific Binding (tau [2]; AD1, Basal ganglia): 599
- Total Binding (tau [2]; AD1, Basal ganglia): 2495
- % of specific binding (tau [2]; AD1, Frontal cortex): 41%
- NSP Binding (tau [2]; AD1, Frontal cortex): 2028
- Specific Binding (tau [2]; AD1, Frontal cortex): 1388
- Total Binding (tau [2]; AD1, Frontal cortex): 3416
- % of specific binding (tau [2]; AD1, Insula): 33%
- NSP Binding (tau [2]; AD1, Insula): 1851
- Specific Binding (tau [2]; AD1, Insula): 893
- Total Binding (tau [2]; AD1, Insula): 2744
- % of specific binding (tau [2]; AD1, Temporal cortex): 28%
- NSP Binding (tau [2]; AD1, Temporal cortex): 2018
- Specific Binding (tau [2]; AD1, Temporal cortex): 784
- Total Binding (tau [2]; AD1, Temporal cortex): 2802
- % of specific binding (tau [2]; AD2, Basal ganglia): 25%
- NSP Binding (tau [2]; AD2, Basal ganglia): 1713
- Specific Binding (tau [2]; AD2, Basal ganglia): 567
- Total Binding (tau [2]; AD2, Basal ganglia): 2280
- % of specific binding (tau [2]; AD2, Frontal cortex): 24%
- NSP Binding (tau [2]; AD2, Frontal cortex): 1901
- Specific Binding (tau [2]; AD2, Frontal cortex): 586
- Total Binding (tau [2]; AD2, Frontal cortex): 2488
- Total Binding (tau [2]; AD2, Insula): 2469
- % of specific binding (tau [2]; AD2, Temporal cortex): 46%
- NSP Binding (tau [2]; AD2, Temporal cortex): 1801
- Specific Binding (tau [2]; AD2, Temporal cortex): 1526
- Total Binding (tau [2]; AD2, Temporal cortex): 3327
- % of specific binding (tau [2]; AD3, Basal ganglia): 31%
- NSP Binding (tau [2]; AD3, Basal ganglia): 1639
- Specific Binding (tau [2]; AD3, Basal ganglia): 733
- Total Binding (tau [2]; AD3, Basal ganglia): 2372
- % of specific binding (tau [2]; AD3, Frontal cortex): 40%
- NSP Binding (tau [2]; AD3, Frontal cortex): 1916
- Specific Binding (tau [2]; AD3, Frontal cortex): 1296
- Total Binding (tau [2]; AD3, Frontal cortex): 3212
- % of specific binding (tau [2]; AD3, Insula): 22%
- NSP Binding (tau [2]; AD3, Insula): 1836
- Specific Binding (tau [2]; AD3, Insula): 509
- Total Binding (tau [2]; AD3, Insula): 2346
- % of specific binding (tau [2]; AD3, Temporal cortex): 16%
- NSP Binding (tau [2]; AD3, Temporal cortex): 1975
- Specific Binding (tau [2]; AD3, Temporal cortex): 374
- Total Binding (tau [2]; AD3, Temporal cortex): 2349
SMILES: [18F]c1ccc(-c2ccc3c(c2)[nH]c2ccncc23)cn1 [^18F-T807, 7-(6-[^18F]fluoropyridin-3yl)-5H-pyrido(4,3-b)indole]

From PMC5725799, “Comparative binding properties of the tau PET tracers THK5117, THK5351, PBB3, and T807 in postmortem Alzheimer brains” (Alzheimer's Research & Therapy, 2017)
